In data set [1] the test system is HFD-fed wild-type mice. The data set is described as follows: Food intake, body weight, ITT and OGTT in mice on HFD for 7 months. It is filed as in vivo, mouse. The note with it: HFD 7 months, 5 mg/kg twice a day for 5 days. As for the experimental part: For oral glucose tolerance test (OGTT), mice were fasted for 4–6 h and subjected to an oral gavage of dextrose (2 mg/g body weight). Tail blood was collected at 0, 15, 30, 60, and 120 min and prepared for serum and assayed for glucose and insulin. For insulin tolerance test (ITT), insulin (0.75 U/kg Humulin R; Eli Lilly, Indianapolis, IN) was administered under fed condition. Serum glucose level was measured at 0, 15, 30, 60, and 90 min time point. Triglyceride tolerance test (TGTT) was initiated by oral gavage of 20% Intralipid (10 μl/g BDW, l141-100 ml, Sigma), and serum was collected at 0, 1, 1.5, 3, and 6 h for triglyceride assay. Glucose, insulin, and triacylglyceride levels were measured using an oxidase-peroxidase assay (Sigma P7119), insulin ELISA (Crystal Chem, Elk Grove village, IL, #15596018), and Infinity Triglycerides Reagent (Thermo Fisher Scientific TR22421).
(§1) Six-week-old wild-type male mice were fed HFD for 4 weeks or 7 months In total, 5 mg/Kg of PBS, Adiporon, AdipoRonPEG5, AdipoRonPEG6HTL were injected twice a day for 5 days. After 5 days of treatment, systemic test is performed, and serum (Before and after treatment), subcutaneous, epididymal, liver, heart samples were harvested for qPCR and sphingolipid analysis.

For data set [2], the system named is HFD-fed mice. Nature of the data set: qPCR gene expression in pancreas, BAT and scWAT of HFD mice. It is filed as in vivo, mouse. As for the experimental part: Total RNA was extracted with the RNeasy Mini kit (Qiagen #74106) for the pancreas or Trizol (Invitrogen #15596018) for the liver and adipose tissue. cDNA was synthesized with iScript cDNA Synthesis Kit (Bio-Rad #170-8891). Quantitative real-time PCR (qPCR) was performed with the Powerup SYBR Green PCR master mix (Applied Biosystems # A25742) on Quantistudio 6 Flex Real-Time PCR System (Applied Biosystems #4485694). Primer sequences for qPCR are listed in supplemental Table S2.
as §1
(In general: Quantitative PCR measures a nucleic acid by following its amplification.)

Details of data set [3]: method as in https://www.caymanchem.com/pdfs/15941.pdf. The following applies: ref https://www.caymanchem.com/pdfs/15941.pdf; cited from earlier work.

SMILES strings stand for the structures. Values after ≈ are worked out from the molar mass of the structure shown.

As for `O=C(COc1ccc(C(=O)c2ccccc2)cc1)NC1CCN(Cc2ccc(OCCOCCOCCOCCOCCO)cc2)CC1` [AdipoRonPEG5], in data set [1], the “blood glucose levels in ITT” value is reported as “significant reduction”, the “blood glucose levels in OGTT” value is “not altered”, the “blood insulin levels in OGTT” value is recorded as “reduction of blood insulin levels” and the “food intake or body weight” value is “no significant impact”. In addition, in data set [2] (BAT), the “Cpt-1a expression” value was “increased expression” and the “Prdm16 expression” value is “significant upregulation”. In data set [2] (subcutaneous adipose tissue), the “fibrosis-related genes (Col1a1, Col3a1, Fn1) and Tgfb1” value is listed as “lowered”. Moreover, the “genes maintaining the functional state of pancreatic β-cells” value in data set [2] (whole pancreas lysate) is given as “did not detect a significant upregulation”.

For the molecule `O=C(COc1ccc(C(=O)c2ccccc2)cc1)NC1CCN(Cc2ccccc2)CC1` [AdipoRon], the “solubility in neutral phosphate buffer containing >30% DMSO” value in data set [3] is 250 µg/mL (≈ 583 µM).

(Values after PMC8327158, “PEGylated AdipoRon derivatives improve glucose and lipid metabolism under insulinopenic and high-fat diet conditions” (Journal of Lipid Research, 2021).)
